Measurements reported in PubChem BioAssay AID330 (DTP/NCI, 2004).
Values joined by “and” are separate entries in the source; they are usually repeats but may differ in a detail not shown here. Equal entries are not always repeated. Inconclusive results and toxic doses are left out.

Tested on: P388 leukemia ip, CD2F1 mice, survival T/C
Test: NCI In Vivo Anticancer Drug Screen. Data for tumor model P388 Leukemia (intraperitoneal) in CD2F1 (CDF1) mice
Details: endpoint: median survival time, higher = longer survival
Summary of the method: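 Mice carrying the transplanted tumor received test compound or vehicle. Survival was recorded in each group, and the value is the treated-group measurement divided by that of the vehicle-treated control group.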

[1] = dose: 50.0 mg/kg/injection, schedule: Q01DX005 (ip), vehicle: Klucel (hydroxypropylcellulose) (HPC)
[2] = dose: 100.0 mg/kg/injection, schedule: Q01DX005 (ip), vehicle: Klucel (hydroxypropylcellulose) (HPC)
[3] = dose: 12.5 mg/kg/injection, schedule: Q01DX009 (ip), vehicle: Klucel (hydroxypropylcellulose) (HPC)
[4] = dose: 25.0 mg/kg/injection, schedule: Q01DX009 (ip), vehicle: Klucel (hydroxypropylcellulose) (HPC)
[5] = dose: 50.0 mg/kg/injection, schedule: Q01DX009 (ip), vehicle: Klucel (hydroxypropylcellulose) (HPC)
[6] = dose: 100.0 mg/kg/injection, schedule: Q01DX009 (ip), vehicle: Klucel (hydroxypropylcellulose) (HPC)
[7] = dose: 200.0 mg/kg/injection, schedule: Q01DX009 (ip), vehicle: Klucel (hydroxypropylcellulose) (HPC)

Question: For `CC(C(=O)O)N1C(=O)c2ccccc2C1=O` (stereo not drawn), which T/C (dose: 4.0 mg/kg/injection, schedule: Q01DX009 (ip), vehicle: water) is on record?
Answer: 105 % of control

Question: And the T/C (dose: 8.0 mg/kg/injection, schedule: Q01DX009 (ip), vehicle: water)?
Answer: 100 % of control

Question: What about the T/C (dose: 16.0 mg/kg/injection, schedule: Q01DX009 (ip), vehicle: water) of the same compound?
Answer: 103 % of control

Question: And the T/C (dose: 32.0 mg/kg/injection, schedule: Q01DX009 (ip), vehicle: water)?
Answer: 100 % of control

Question: What about the T/C (dose: 64.0 mg/kg/injection, schedule: Q01DX009 (ip), vehicle: water) of the same compound?
Answer: 99 % of control

Question: How did the T/C (dose: 100.0 mg/kg/injection, schedule: Q04DX002 (ip), vehicle: saline with Tween-80) turn out when `O=C(O)/C(Br)=C(/Br)C(=O)O` was run?
Answer: 106 % of control

Question: And the T/C (dose: 200.0 mg/kg/injection, schedule: Q04DX002 (ip), vehicle: saline with Tween-80)?
Answer: 100 % of control

Question: Which results are given for `Clc1cc2[nH]cnc2c(Cl)n1`?
Answer: T/C (dose: 6.25 mg/kg/injection, schedule: Q04DX002 (ip), vehicle: saline): 102 % of control; T/C (dose: 12.5 mg/kg/injection, schedule: Q04DX002 (ip), vehicle: saline): 102 % of control; T/C (dose: 25.0 mg/kg/injection, schedule: Q04DX002 (ip), vehicle: saline): 103 % of control

Question: Which results are given for `Nc1c(-c2nc3ccc(C4=NCCN4)cc3[nH]2)[nH]c2cc(-c3nc4ccc(C5=NCCN5)cc4[nH]3)ccc12`?
Answer: T/C [1]: 90 % of control; T/C [2]: 90 % of control

Question: With `CCOc1ccc(-n2c(C)c(COC(=O)NC)c(COC(=O)NC)c2C)cc1` as the compound, how does the T/C [3] read?
Answer: 152 % of control and 166 % of control

Question: What about the T/C [4] of the same compound?
Answer: 150 % of control

Question: And the T/C [5]?
Answer: 109 % of control

Question: With `Cn1c(C(C)(O)c2cc3c(Cl)nccc3n2C)cc2c(Cl)nccc21` as the compound, how does the T/C [1] read?
Answer: 103 % of control

Question: And the T/C [2]?
Answer: 105 % of control

Question: What about the T/C (dose: 200.0 mg/kg/injection, schedule: Q01DX005 (ip), vehicle: Klucel (hydroxypropylcellulose) (HPC)) of the same compound?
Answer: 106 % of control

Question: What does the source list for `S=c1[nH]c2ccccc2[nH]1`?
Answer: T/C (dose: 6.25 mg/kg/injection, schedule: Q01DX009 (ip), vehicle: saline): 98 % of control; T/C (dose: 12.5 mg/kg/injection, schedule: Q01DX009 (ip), vehicle: saline): 102 % of control; T/C (dose: 50.0 mg/kg/injection, schedule: Q01DX009 (ip), vehicle: saline): 98 % of control

Question: For `CCOC(=O)C(Cc1ccc(O)c(C=O)c1)NC(C)=O` (stereo not drawn), which T/C (dose: 60.0 mg/kg/injection, schedule: Q01DX005 (ip), vehicle: Klucel (hydroxypropylcellulose) (HPC)) is on record?
Answer: 96 % of control

Question: What about the T/C (dose: 120.0 mg/kg/injection, schedule: Q01DX005 (ip), vehicle: Klucel (hydroxypropylcellulose) (HPC)) of the same compound?
Answer: 97 % of control

Question: And the T/C (dose: 240.0 mg/kg/injection, schedule: Q01DX005 (ip), vehicle: Klucel (hydroxypropylcellulose) (HPC))?
Answer: 98 % of control

Question: For `Cc1ccc(S(=O)(=O)N/N=C/C(C)c2cccnc2)cc1` (stereo not drawn), which T/C (dose: 50.0 mg/kg/injection, schedule: Q01DX009 (ip), vehicle: saline with Tween-80) is on record?
Answer: 105 % of control

Question: What about the T/C (dose: 100.0 mg/kg/injection, schedule: Q01DX009 (ip), vehicle: saline with Tween-80) of the same compound?
Answer: 99 % of control

Question: What about the T/C (dose: 200.0 mg/kg/injection, schedule: Q01DX009 (ip), vehicle: saline with Tween-80) of the same compound?
Answer: 107 % of control

Question: With `C[Si](C)(C)/N=C/O[Si](C)(C)C` as the compound, how does the T/C (dose: 60.0 mg/kg/injection, schedule: Q01DX005 (ip), vehicle: saline) read?
Answer: 100 % of control

Question: And the T/C (dose: 120.0 mg/kg/injection, schedule: Q01DX005 (ip), vehicle: saline)?
Answer: 101 % of control

Question: And the T/C (dose: 240.0 mg/kg/injection, schedule: Q01DX005 (ip), vehicle: saline)?
Answer: 108 % of control

Question: For `O=C1C=C(O)CN1C(=O)c1ccc(Cl)cc1`, which T/C [5] is on record?
Answer: 98 % of control

Question: And the T/C [6]?
Answer: 107 % of control

Question: What about the T/C [7] of the same compound?
Answer: 107 % of control

Question: Which T/C (dose: 6.25 mg/kg/injection, schedule: Q01DX009 (ip), vehicle: Klucel (hydroxypropylcellulose) (HPC)) does the source give for `O=C(O)/C=C/C(=O)Nc1ccc(Cl)c(Cl)c1` here?
Answer: 105 % of control

Question: What about the T/C [3] of the same compound?
Answer: 115 % of control

Question: And the T/C [4]?
Answer: 105 % of control

Question: What about the T/C (dose: 400.0 mg/kg/injection, schedule: Q01DX009 (ip), vehicle: Klucel (hydroxypropylcellulose) (HPC)) of the same compound?
Answer: 109 % of control

Question: With `O=C(/C=C(/SS/C(=C/C(=O)c1ccccc1)c1ccccc1)c1ccccc1)c1ccccc1` as the compound, how does the T/C [5] read?
Answer: 98 % of control

Question: What about the T/C [6] of the same compound?
Answer: 98 % of control

Question: And the T/C [7]?
Answer: 91 % of control

Question: `N#CC(=O)Nc1ccc(F)cc1` was tested. Which T/C (dose: 3.75 mg/kg/injection, schedule: Q01DX005 (ip), vehicle: saline with Tween-80) did it give?
Answer: 102 % of control

Question: What about the T/C (dose: 7.5 mg/kg/injection, schedule: Q01DX005 (ip), vehicle: saline with Tween-80) of the same compound?
Answer: 94 % of control

Question: What about the T/C (dose: 15.0 mg/kg/injection, schedule: Q01DX005 (ip), vehicle: saline with Tween-80) of the same compound?
Answer: 100 % of control and 107 % of control
